Measured values from patent US6649797B2, “Compounds and methods of use to treat infectious diseases” (The Picower Institute for Medical Research, priority 1996, dated 2003).
Where a name gives a salt, the structure may show the parent alone. Read-outs that look alike come from different tables or passages of the source.

Legend:
[1] = test system: macrophage-tropic strain of HIV-1; assay: Inhibition of HIV-1 replication in peripheral blood-derived macrophages (IC50, RT or p24 in medium); format: cell-based; settings: Human immunodeficiency virus 1, Macrophage, 120 h; 50% inhibition of viral growth; RT or p24 in medium about day 5 or 6 post-infection
Protocol: A quantitative measurement of the activity of the compounds of the invention to block the replication of HIV-1 in non-dividing cells can be determined by culture of a macrophage-tropic strain of HIV-1 on peripheral blood-derived macrophages. The cells are cultured for 5-6 days prior to infection in a medium consisting of DMEM supplemented with 10% type A/B human serum and 200 U/ml Macrophage Colony Stimulating Factor, with half the medium changed after 3 days, to reach a density of about 10^6 cells per 5 ml well. A macrophage-tropic viral stock may be grown on these cells. The concentration of infectious particles in the stock is estimated by measurement of p24 antigen concentration.
To test the effect of compounds of the invention on HIV-1 infection in the above-described culture system, the medium is removed and replaced with medium containing HIV-1 at a concentration of 1 ng of p24 (10^4 TCID50/ml (TCID=tissue culture infectious doses)) and a known concentration of the compound of the invention (the inhibitor). After 24 hours, the cultures are washed to remove non-adherent virus and the culture is re-fed with medium containing the inhibitor at the desired concentration. The amount of replication of HIV-1 is estimated by an assay of the reverse transcriptase activity or by an assay of the concentration of p24 antigen in the culture medium every 2-3 days throughout the post-infection period. In a preferred embodiment the anti-HIV potency of the candidate drug is measured by comparison of the concentration of reverse transcriptase (RT) or of p24 antigen in the medium of the treated and control cultures at the time of the peak of these values in non-treated control cultures, that is about day 5 or 6 post-infection. Repetition at various levels of inhibitor allows for the calculation of the concentration of inhibitor that achieves 50% inhibition of viral growth, IC50. Table I discloses the IC50 of various inhibitors.

[2] = Toxicity in mice, median lethal dose by intraperitoneal injection; format: in vivo, mouse; settings: for LD50: mouse, in vivo, ip, read-out: LD50 ± standard deviation
Protocol: The doses of compounds of the invention found to be lethal to 50% of the mice (LD50) were determined by intraperitoneal injection of groups of five animals with increasing doses of each compound. CNI-0294 was administered from 0, 2, 10, 20, 40, 80, 160, 320, 640, 1280 mg/kg in 0.5 ml of water/HCl; CNI-1594 at 0, 2.4, 5, 10, 20, 40, 80 mg/kg in 0.5 ml of water/HCl; CNI-1794 at 0, 20, 50, 80 mg/kg in 0.5 ml of water/HCl; and CNI-1894 at 0, 10, 20, 40, 80, 240, 480, 960 mg/kg in water/HCl. […] The percentage of animals in each group which died were utilized to calculate the LD50 by non-linear curve fitting with the Enzfit software (Elsevier Bioscience; Cambridge, UK) programmed with the Chou equation (Chou 1976, J Theor Biol 39:253-276)).

[3] = Pharmacokinetics in mice (plasma, HPLC); format: in vivo, mouse; settings: for Dose: calculated from clearance for target serum conc. (No. 2: 10 nM; No. 11: 50 nM; No. 15: 15 nM); for AUC / Cmax / bioavailability / Tmax: female, ND4 Swiss Webster, plasma; for Tmax: read-out: tmax (converted)
Protocol: Standard addition curves for each test compound were constructed by adding increased amounts of drug to mouse or human A^+ plasma (Long Island Blood Services; Melville, N.Y). […] The column was washed with 1.0 ml of water and then eluted with 1.0 ml of 10 mM tetramethylammonium chloride/10 mM heptane sulfonate/4.2 mM H3PO4/95% CH3CN/5% H2O (Buffer C). The eluted sample was reduced to dryness in a rotary evaporator and resuspended in 1.0 ml Buffer A.
Two hundred μl of the resuspended sample was injected onto a Hewlett-Packard model 1090 high performance liquid chromatography system (HPLC)(Wilmington, Del.) equipped with a photodiode array ultraviolet/visible spectrophotometric detector, autosampler, and Chemstation operating software. The column used was a 250×4.6 mm Zorbax RX-C8 column (Mac-Mod Analyticals; Chadd's Ford, Pa.) kept at room temperature and run at 1.5 ml/min. The mobile phase used was Buffer A and 10 mM tetramethylammonium chloride/10 mM heptane sulfonate/4.2 mM H3PO4/75% CH3CN/25% H2O (Buffer B), with all runs initiated at 10% Buffer B. A linear 30 min gradient to 60% Buffer B was then performed, followed by a 4 min reverse gradient to initial conditions.
Female ND4 Swiss Webster mice (21-24 g) were obtained from Harlan Sprague Dawley (Indianapolis, Ind.) and randomly placed in groups of five in cages with free access to food and water. […] The other CNI compounds were administered intraperitoneally or by oral gavage as a solution in water titrated with sufficient HCl to dissolve the drug. At various time points, ranging from 5 min to 4 days, a single group of animals was euthanized by carbon dioxide inhalation and bled by cardiac puncture using heparin as an anticoagulant. The blood from the five mice in the group was pooled and centrifuged at 14000× g for 10 min. The volume of plasma was measured, and equal volume of Buffer A added, and the mixture extracted and analyzed as described above, except that the dried eluates were resuspended in 200 μl Buffer A and 100 μl was injected onto the high performance liquid chromatography (HPLC) system.
The area under the plasma concentration-time curve (AUC) was determined, and bioavailability was measured as AUCoral/AUCi.p. A and B represent the zero time intercept of the distribution and elimination phases respectively, and a and β the respective slopes of the phases multiplied by 2.303. The t/2α and t1/2β are calculated half-lives of the drug in each phase (0.693/α and 0.693/β respectively). The volume of distribution (VD) was calculated as dose/B, and the total clearance rate (Cltot) calculated as β*VD. Cmax and tmax are the maximal plasma concentration and time of this measurement, respectively.

Plasmodium falciparum = assay: Antimalarial activity in vitro, [3H]-hypoxanthine incorporation; format: cell-based; settings: clone Dd2
From the text: The antimalarial properties of the compounds of the invention can be analyzed by techniques, assays and experimental animal models well known in the art. For example, the inhibition of growth of Plasmodium falciparum in vitro by the compounds may be assessed by the hypoxanthine-incorporation method (Desjardins et al., 1979, Antimicrob. Ag. Chemother. 16:710-718). […] The in vivo efficacy of the compounds can also be tested in mouse models in which parasitemia is enumerated following administration of the compound (Ager, A. L. 1984, Rodent malaria models, pp 225-264. In Handbook of Experimental Pharmacology vol. 68, Antimalarial Drugs, Peters and Richards eds, Springer-Verlag, Berlin).
The antimalarial activity of the compounds was determined essentially as described in Desjardins et al. supra. Fifty μl of various concentrations of a compound of the invention, chloroquine, or pyrimethamine were added to the wells of microtiter plates, followed by 200 μl of ring-stage, synchronized, P. falciparum-infected erythrocytes (final hematocrit=1.5%, final parasitemia=1-5%). The plates were incubated for 24 hr in a candle jar kept at 37° C., and then 25 μl of [^3H]-hypoxanthine (Amersham, Arlington Heights, ILL.; 2.5 μl Ci/well) was added. The plates were then incubated for a further 24 hr, before harvesting onto Unifilter-96 GF/C filter-microplates (Packard; Meriden, Conn.). Twenty-five μl of Microscint scintillation fluid (Packard) was added to each well of the filter-microplate, which was subsequently counted in a Top-count microplate scintillation counter (Packard). The percent of [^3H]-hypoxanthine uptake relative to control infect-erythrocytes was used to determine the IC50 value for the compounds by non-linear regression for LD50 determination.

[4] = In vitro metabolism with mouse liver post-mitochondrial supernatant and NADPH; format: in vitro ADME; settings: for metabolic conversion (drug altered, as judged by peak area): 60 min incubation
Protocol: Several female ND4 Swiss Webster mice were euthanized by carbon dioxide inhalation and the livers excised and rinsed with ice cold phosphate buffered saline (pH 7.4). The livers were minced, gently homogenized in 50 mM phosphate buffer (pH 7.4) with a Dounce homogenizer, and centrifuged at 9600× g for 20 min. The post-mitochondrial supernatant was kept, glycerol added to 20%, and frozen at −70° C in 1.0 ml aliquots until used. For each incubation, 1.0 ml of a 1.0 mg/ml drug solution was added to 3.0 ml of 50 mM phosphate buffer (pH 7.4), 1.0 ml of 2 mg/ml NADPH in 50 mM phosphate (pH 7.4), and 1.0 ml of the post-mitochondrial supernatant. Five hundred μl of each incubate was then immediately transferred to an ice-cold tube to provide the zero-time sample, and addition 500 μl aliquots removed to ice-cold tubes at 8, 15, 30, and 60 min. The samples were then extracted, and analyzed by HPLC as described in section 7.1. Control incubations were also performed where drug or post-10 mitochondrial supernatant was omitted. […] Peaks in the CNI compound incubations which increased over time, and were not present in control samples lacking the enzyme preparation were treated as putative metabolites.

HIV-1 = HIV-1 production in cultured monocytes at fixed 100 nM; format: cell-based; settings: monocytes infected 10 days prior to assay (10 ng p24/10^6 cells), percentage of untreated control
Protocol: Alternatively, the compounds may all be compared for inhibition of HIV replication at a fixed concentration. Presented in Table II are compounds that were used at a concentration of 100 nM to inhibit the production of HIV-1 in cultured monocytes infected with HIV-1 10 days prior to assay (10 ng of p24/10^6 cells). The production of HIV-1 in each treated culture is reported as percentage of untreated control.

HIV-1ADA = assay: Anti-HIV activity in primary human monocytes, day 9 (Table IX, FIG. 12C); format: cell-based; settings: Human immunodeficiency virus 1, Monocyte, 216 h; day 9 after infection; >10 μM = 50% inhibition not achieved at maximal concentration; read-out: IC50
Protocol: Monocytes infected with HIV-1ADA were cultured in the presence of CNI-H0294 and CNI-H3094 in various concentrations. Nine days after infection, RT activity in culture supernatants was quantified. The results are presented as percent of total RT activity in untreated cultures (control). Three independent samples were assayed for each drug concentration, and the standard deviation was less than 15%.
[…] A 50% inhibitory concentration (IC50) was determined at day 9 after infection.

[5] = mouse, ip, 50 mg/kg, vehicle water
[6] = mouse, po, 50 mg/kg, vehicle water
[7] = mouse, i.p., 50 mg/kg, vehicle water
[8] = mouse, ip, 20 mg/kg, vehicle water
[9] = mouse, i.p., 20 mg/kg, vehicle water

CC(=O)c1cccc(Nc2cc(C)[n+](C)c(N)n2)c1 (as salt: iodide) [Compound No. 14, 4-(3-acetylphenyl)amino-2-amino-1,6-dimethylpyrimidinium iodide] gave a melting point of 238 to 240 °C.
For CC(=O)c1cc(Nc2cc(C)nc(N)n2)cc(C(C)=O)c1 [Compound No. 11, 2-amino-4-(3,5-diacetylphenyl)amino-6-methylpyrimidine], the IC50 [1] was 50 nM, the “visible signs of toxicity” value [2] was “well tolerated” and the LD50 [2] was greater than 160 mg/kg. It also gave a Dose [3] of 13.3 mg/Kg day, an AUC [3, 5] of 3930 ng·h/mL and a Cmax [3, 5] of 5700 ng/mL. The bioavailability ([3]; mouse, oral, mice, single 50 mg/kg dose, AUCoral against AUCi.p., read-out: relative bioavailability) was 15%, the AUC [3, 6] was 570 ng·h/mL and the Cmax [3, 6] was 350 ng/mL. The Tmax ([3]; ip, mouse, i.p., 50 mg/kg, vehicle water) was 15 min, the bioavailability ([3]; mouse, oral, 50 mg/kg, vehicle water, AUCoral/AUCi.p., read-out: Bioavailability) was 15% and the Tmax ([3]; mouse, oral, 50 mg/kg, vehicle water) was 15 min. For the same compound, the maximal plasma level ([3]; mice, oral, single 50 mg/kg dose) was 0.35 µg/mL, the “A (zero time intercept of the distribution phase)” value [3, 7] was 5.22 µg/mL and the “B (zero time intercept of the elimination phase)” value [3, 7] was 0.14 µg/mL. For the same compound, the Cltot [3, 7] was 16.50 mL/min, the VD [3, 7] was 5.21 L and the t1/2α [3, 7] was 22.8 min. It also gave a t1/2β [3, 7] of 219 min, a α [3, 7] of 1.83 h⁻¹ and a β [3, 7] of 0.19 h⁻¹. The “less active than CNI-0294” value (Plasmodium falciparum) was “approximately 5 fold”, the metabolites produced [4] was “three minor and one major metabolite” and the “metabolic conversion (drug altered, as judged by peak area)” value [4] was 65.19%.
In the case of CC(=O)c1cc(NC(=N)NC(=N)N)cc(C(C)=O)c1.Cl [Compound No. 12, N-(3,5-diacetylphenyl)biguanide hydrochloride], the “Viral Production” value (HIV-1) is reported as 12% and the melting point is reported as 260 to 270 °C (dec.).
In the case of CC(=O)c1cc(Nc2nc(N)nc(N)n2)cc(C(C)=O)c1 [Compound No. 13, 2-(3,5-diacetylphenyl)amino-4,6-diamino-1,3,5-triazine], the “Viral Production” value (HIV-1) is reported as 14% and the melting point is reported as 271 to 272 °C.
In the case of CC(=O)c1cccc(Nc2cc(C)[n+](C)c(N)n2)c1 [Compound No. 14, 4-(3-acetylphenyl)amino-2-amino-1,6-dimethylpyrimidinium iodide], the IC50 [1] is reported as 10 nM and the IC50 (HIV-1ADA) is reported as 1000 nM.
With CC(=O)c1cccc(Nc2cc(C)nc(N)n2)c1 [Compound No. 15, 4-(3-acetylphenyl)amino-2-amino-6-methylpyrimidine] the IC50 [1] was 15 nM, the “visible signs of toxicity” value [2] was “death occurring in minutes and the animals displaying signs of acute neurotoxicity” and the LD50 [2] was 49.04 ± 0.08 mg/kg. For the same compound, the Dose [3] was 5.70 mg/Kg day, the AUC [3, 8] was 820 ng·h/mL and the Cmax [3, 8] was 1930 ng/mL. For the same compound, the Tmax ([3]; ip, mouse, i.p., 20 mg/kg, vehicle water) was 15 min, the “A (zero time intercept of the distribution phase)” value [3, 9] was 1.10 µg/mL and the “B (zero time intercept of the elimination phase)” value [3, 9] was 0.01 µg/mL. For the same compound, the Cltot [3, 9] was 26.40 mL/min, the t1/2α [3, 9] was 19.2 min and the t1/2β [3, 9] was 1040 min. For the same compound, the α [3, 9] was 2.14 h⁻¹, the β [3, 9] was 0.04 h⁻¹ and the metabolites produced [4] was “three minor and one major metabolite”. The “metabolic conversion (drug altered, as judged by peak area)” value [4] was 11.74%.
